The text below walks through data of patent US6174875A, “Benzoquinoid ansamycins for the treatment of cardiac arrest and stroke” (priority 1999, dated 2001).

In data set [1] the test system is myogenic H9c2 cells and cardiomyocytes. The note with it: pretreatment; cited from earlier work.
The test system of data set [2] is heat shock proteins in rat cardiomyocytes. As to conditions: cited from earlier work.
Another data set deals with hsp70 in fibroblasts. The note with it: cited from earlier work.
Data set [3] concerns heat shock proteins in myogenic H9c2 cells. The note with it: cited from earlier work.
In another data set the test system is HT22 cells. The data set can be described thus: MTT viability assay of glutamate-treated HT22 cells. Format: cell-based, mouse. The note with it: 0.5 μg/ml herbimycin A (FIG. 2). The procedure: HT22 cells were seeded on 60 mm tissue culture dishes at 300,000 cells per dish and grown overnight. Cells were then incubated in the presence of 5 mM glutamate for 20 hours. […] In order to provide a more accurate assessment of glutamate-induced oxidative toxicity, the ability of HT22 cells to metabolize 3-(4,5-[…]-2-yl)-2,5-diphenyl tetrazolium bromide (MTT) was assayed. The reduction of this dye by viable cells can easily be detected spectrophotometrically as described by Mosman (1983) J. Immunol. Methods 65:55 with reduced HT22 cell viability directly correlated with decreased metabolism of MTT (Shubert et al. (1992) Proc. Natl. Acad. Sci. USA 89:8264). HT22 cells were seeded on 96-well plates at 5,000 cells per well and grown for 12 hours. Cells were then treated with 2 mM, 5 mM or 10 mM concentrations of glutamate. […] After a total incubation period of 20 hours, cell viability was measured using an MTT assay as described by Li et al. (1997) Neuron 19:453. Briefly, 10 μl of MTT solution (5 mg/ml) was added to each well and cells incubated for an additional 4 hours. 100 μl of solubilization solution (50% dimethylformamide and 20% SDS, pH 4.8) was added and left on the cells 5 overnight, after which light absorption at 570 nm was measured. Values (% Viability) represent the average of quadruplicate (FIG. 1) or triplicate (FIG. 2) determinations±S.D. Similar results were obtained in a replicate experiment. Cell viability was expressed relative to control cells treated with GA or Herb alone.
(In general: Tetrazolium assays rely on reduction of a dye to a coloured formazan, in cell work by metabolically active cells.)

A further data set deals with cultured neurons. As to conditions: cited from earlier work.
The nature of a further data set: in vivo. The note with it: mouse, iv, 60 mg/kg. The procedure: 17-allylaminogeldanamycin (17-AAG) (60 mg/kg) was administered to CD2F1 mice by intravenous (iv) injection. Brain levels of 17-AAG were determined at various time points after administration.

For the compound `COC1C=CC=C(C)C(=O)NC2=CC(=O)C=C(C2=O)C(OC)C(C)CC(OC)C(OC)C(C)C=C(C)C1OC(N)=O` (stereo not shown) [herbimycin A], in data set [1], the “protection against simulated ischemia” value was “conferred protection against simulated ischemia”. The “induction of hsp70 expression in rat cardiomyocytes” value in data set [2] was “induce hsp70 expression”. The “overexpression of heat shock proteins in cardiomyocytes” value in data set [2] (pretreatment) is “overexpression of heat shock proteins”. Also, the “induction of hsp70 expression in fibroblasts” value with hsp70 in fibroblasts is listed as “induce hsp70 expression”. For the same compound, the “induction of hsp70 expression in a myogenic cell line” value in data set [3] is reported as “induce hsp70 expression”. The “overexpression of heat shock proteins in myogenic H9c2 cells” value in data set [3] (pretreatment) is “overexpression of heat shock proteins”. The “protection from glutamate-induced oxidative toxicity (MTT viability)” value in the data set with HT22 cells is recorded as “protected HT22 cells from the glutamate-induced oxidative toxicity”.

As for vitamin E, the “protection of cultured neurons from oxidative toxicity” value in the data set on cultured neurons was “protect cultured neurons from this form of toxicity”.

Take `CC(=O)Oc1ccccc1C(=O)O` [aspirin]: in the data set on cultured neurons, the “protection of cultured neurons from oxidative toxicity” value was “protect cultured neurons from this form of toxicity”.

For the compound `C=CCNC1=C2CC(C)CC(OC)C(O)C(C)C=C(C)C(OC(N)=O)C(OC)C=CC=C(C)C(=O)NC(=CC1=O)C2=O` (stereo not shown) [17-AAG, 17-allylaminogeldanamycin], in “in vivo”, the concentration at 24 h was determined as 100 ng/g.
